In paper PMC6728334 (Scientific Reports, 2019):
“Also recorded” adds a separate entry of the source. Where two headings read alike, the source gives them in different places.

Columns and labels:
[1] = tested on: Uba1-overexpressing HEK 293 cells; test: Cell survival in Uba1-overexpressing cells vs empty vector-transfected control cells; type: cell-based, human; details: 24-h treatment at IC50 of each compound (Myr 3 mM, DM 650 μM; puromycin 1 and 2 μM)
Description: (§1) HEK 293FT cells were evaluated for survival following compound treatments by the Alamar Blue (resazurin) assay. Cells were plated onto 96-well plates at 4.8 × 10^4 cells/well in 0.5% FBS-containing DMEM at 37 °C and 5% CO2. After 24 h, compounds were added. After 24-h treatment, resazurin was added to a final concentration of 0.12 mM. Following 4-h incubation, conversion to the resorufin product was measured (with excitation at 542 nm and emission at 590 nm) on a fluorescence plate reader.
(§2) HEK 293FT cells (1.5 × 10^6) were plated onto 6-cm plates in 5 ml of DMEM with 10% FBS and allowed to grow for 24 h at 37 °C and 5% CO2. For transfections, 6 μg of plasmid DNA (empty vector containing FLAG-tag sequence only, FLAG-Uba1, or FLAG-ubiquitin) and 10 μl of Lipofectamine 2000 were used for each plate. The DNA and the reagent were diluted separately in 500 μl of Opti-MEM (Gibco), and each was mixed by vortexing. After 5-min incubation, the two tubes were combined and incubated for another 20 min. Prior to adding the transfection solution to the cells, the medium was replaced with 4 ml of Opti-MEM. The transfection solution was then added dropwise. After 3-h incubation, the medium was changed to 0.5% FBS-containing DMEM, and the cells were plated for cell survival experiments, as above.

Uba1 [2] = biological target: T1, Uba1 (Homo sapiens, UniProt P22314); test: Reversibility: Uba1 preincubation, washout by centrifugal filtration, then PCNA ubiquitination; type: biochemical; details: 30 μM compound preincubated with Uba1 for 2 h, then washed out
T1 construct: His; host or cells: E. coli BL21(DE3)
T1 sequence (P22314 1-1058): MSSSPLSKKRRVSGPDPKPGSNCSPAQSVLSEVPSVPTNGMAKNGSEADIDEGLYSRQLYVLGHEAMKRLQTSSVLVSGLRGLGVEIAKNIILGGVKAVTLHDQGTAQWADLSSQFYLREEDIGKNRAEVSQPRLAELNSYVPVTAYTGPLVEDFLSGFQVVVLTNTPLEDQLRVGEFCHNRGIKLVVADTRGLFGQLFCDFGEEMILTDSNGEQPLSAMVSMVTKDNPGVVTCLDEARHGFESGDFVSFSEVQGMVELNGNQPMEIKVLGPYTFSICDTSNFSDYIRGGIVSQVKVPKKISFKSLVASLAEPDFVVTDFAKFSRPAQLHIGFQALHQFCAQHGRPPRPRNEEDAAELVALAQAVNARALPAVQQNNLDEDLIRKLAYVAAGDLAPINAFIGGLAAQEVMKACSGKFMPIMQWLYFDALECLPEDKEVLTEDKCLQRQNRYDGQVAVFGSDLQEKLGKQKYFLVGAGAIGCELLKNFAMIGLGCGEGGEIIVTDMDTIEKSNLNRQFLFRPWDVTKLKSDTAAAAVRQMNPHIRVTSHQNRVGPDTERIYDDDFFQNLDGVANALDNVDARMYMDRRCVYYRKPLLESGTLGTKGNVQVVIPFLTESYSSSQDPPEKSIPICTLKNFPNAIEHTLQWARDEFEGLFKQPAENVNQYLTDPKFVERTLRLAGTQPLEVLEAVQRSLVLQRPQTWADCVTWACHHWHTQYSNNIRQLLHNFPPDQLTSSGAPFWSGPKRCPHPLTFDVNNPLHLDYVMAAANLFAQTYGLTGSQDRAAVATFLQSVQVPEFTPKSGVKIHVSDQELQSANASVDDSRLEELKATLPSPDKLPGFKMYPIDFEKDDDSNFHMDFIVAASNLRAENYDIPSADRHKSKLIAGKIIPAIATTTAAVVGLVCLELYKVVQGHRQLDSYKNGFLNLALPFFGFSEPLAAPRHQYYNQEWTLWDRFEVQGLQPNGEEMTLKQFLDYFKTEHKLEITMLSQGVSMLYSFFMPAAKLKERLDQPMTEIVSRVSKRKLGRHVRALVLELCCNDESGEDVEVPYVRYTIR
Description: Samples were then transferred to YM-30 Microcon centrifugal concentrators (Merck Millipore), diluted in buffer (40 mM Tris-HCl, pH 7.5, 8 mM MgCl2, and 10% glycerol), then serially centrifuged with additions of buffer to the remaining retentate between each spin, for final dilutions of compounds to <0.05% of original concentrations. The resulting samples were then tested in PCNA ubiquitination reactions.

[3] = tested on: ubiquitin-overexpressing HEK 293 cells; test: Cell survival in ubiquitin-overexpressing cells vs empty vector-transfected control cells; type: cell-based, human; details: 24-h treatment at IC50 of each compound (Myr 3 mM, DM 650 μM; puromycin 1 and 2 μM)
Description: as §1, §2

HEK 293FT cells [4] = test: Cellular global ubiquitination with MG132, anti-ubiquitin Western blot; type: cell-based, human; details: EGCG 250 and 500 μM, 1 h total; MG132 50 μM for 30 min
Description: HEK 293FT cells were plated in 6-well plates at 8 × 10^5 cells/well in DMEM with 0.5% FBS. […] Cells were harvested, and whole-cell lysates were prepared in RIPA lysis buffer containing protease inhibitor cocktail ([…] from Sigma-Aldrich) and sonicated. Equivalent loadings of total protein for each treatment, as determined by Bradford assay of each extract sample, were subjected to electrophoresis on 8% SDS-polyacrylamide gels and Western blot analysis, probed with anti-ubiquitin antibody, then stripped and reprobed with anti-β-tubulin antibody.

HEK 293FT cells [5] = test: Cell survival, Alamar Blue (resazurin) assay; type: cell-based, human; details: 24-h treatment; for IC50: 2% DMSO, read-out: IC50 for inhibition of cell survival
Description: For cellular experiments, HEK 293FT cells (a fast-growing SV40 large T antigen-transformed strain of HEK 293 cells designed for enhanced transgene expression in transient transfections) were grown in growth medium consisting of Dulbecco’s modified Eagle’s medium (DMEM; Sigma-Aldrich), supplemented with 10% fetal bovine serum (FBS; Gibco) in a humified cell culture incubator at 37 °C with 5% CO2.
as §1

Rad6 = biological target: T2, Rad6 (Homo sapiens, UniProt P63146); test: Rad6~ubiquitin thioester formation by transfer from already formed Uba1~ubiquitin; type: biochemical; details: Rad6 preincubated with compound 15 min; 2% DMSO
T2 construct: FLAG; made in house
Description: The overall reaction was conducted in two separate steps: initial reaction of Uba1 with ubiquitin in the absence of compound, then mixing with Rad6 with compound to evaluate transfer of ubiquitin from already formed Uba1~ubiquitin to Rad6. The first reaction was conducted with 300 nM Uba1, 1 μM GST-ubiquitin, and 2 mM ATP in a buffer of 40 mM Tris-HCl, pH 7.5, 8 mM MgCl2, and 10% glycerol for 30 min at 25 °C to allow for charging of Uba1 with GST-ubiquitin incubations. […] The samples were then subjected to SDS-polyacrylamide gel electrophoresis under non-reducing conditions, silver staining, and quantitation of scanned images, as described above for the silver-staining-based Uba1~ubiquitin thioester formation assay.

Uba1 [6] = biological target: T1, Uba1; test: Uba1~ubiquitin thioester formation (Uba1, GST-ubiquitin, ATP; silver-stained gels); type: biochemical
[7] = tested on: PCNA ubiquitination (RFC, Uba1, Rad6, Rad18, PCNA, ubiquitin); test: Reconstituted PCNA ubiquitination cascade, Western blot quantitation; type: biochemical, human
Description: The PCNA loading and ubiquitination cascade was reconstituted in 96-well white round-bottom polypropylene plates (Greiner) in a buffer consisting of 40 mM Tris-HCl, pH 7.5, 8 mM MgCl2, and 10% glycerol with 2.5 nM nicked circular pUC19, 50 nM RFC, 50 nM Uba1, 250 nM Rad6–Rad18 dimer, 50 nM FLAG-PCNA, and 250 nM biotin-ubiquitin (final concentrations). Compounds were added to the samples, with preincubation for 15 min at 25 °C before addition of ATP to a final concentration of 2 mM (to initiate the reaction cascade), followed by incubation for 2 h at 25 °C. The reactions were then terminated by addition of EDTA to 20 mM for Alpha assays or Laemmli sample buffer for Western blot analyses. For Alpha assays, reaction mixtures were diluted in buffer containing streptavidin-conjugated donor beads and anti-FLAG antibody-conjugated acceptor beads in opaque white microplates under low-light conditions, as recommended by the Alpha bead manufacturer, PerkinElmer. The plates were read on a Tecan Spark microplate reader at 23 °C. For Western blot analyses, FLAG-PCNA was detected with anti-FLAG antibody, and quantitations from the Western blot images was performed with NIH ImageJ software[74] and then analyzed with GraphPad Prism software.

T2 sequence (P63146 whole entry): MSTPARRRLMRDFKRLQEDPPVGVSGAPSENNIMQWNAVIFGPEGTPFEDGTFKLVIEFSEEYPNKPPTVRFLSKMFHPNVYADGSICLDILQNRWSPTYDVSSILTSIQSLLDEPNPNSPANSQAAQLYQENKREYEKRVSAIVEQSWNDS

For `O=C(O[C@@H]1Cc2c(O)cc(O)cc2O[C@@H]1c1cc(O)c(O)c(O)c1)c1cc(O)c(O)c(O)c1` [EGCG, (–)-Epigallocatechin-3-gallate], the “Effect of Uba1 overexpression on cell survival” value [1] was “reduced sensitivity; also recorded: Protects”, the “Reversibility of inhibition of Uba1 and PCNA ubiquitination after washout” value (Uba1 [2]) was “reversible” and the “Effect of ubiquitin overexpression on cell survival” value [3] was “reduced sensitivity; also recorded: Protects”. The “Accumulation of ubiquitin-conjugated protein species in response to MG132 (global cellular ubiquitination)” value (HEK 293FT cells [4]) was “inhibited”, the “Activity on cell viability / survival (in words)” value (HEK 293FT cells [5]) was “reduces the viability and growth; also recorded: inhibitory” and the IC50 (HEK 293FT cells [5]) was 220 µM. The IC50 (HEK 293FT cells [5]; Homo sapiens, HEK293FT, 24 h) was 220 µM, the “Formation of the Rad6~ubiquitin thioester conjugate” value (Rad6) was “does not inhibit” and the “Uba1~ubiquitin thioester formation, Uba1 alone preincubated with compound before ubiquitin and ATP” value (Uba1 [6]; EGCG 10 μM, Myr 50 μM) was “complete inhibition”. The “Uba1~ubiquitin thioester formation, ubiquitin alone preincubated with compound before Uba1 and ATP” value (Uba1 [6]; EGCG 10 μM, Myr 50 μM) was “did not”, the “Activity in the Uba1~ubiquitin thioester formation assay (in words)” value (Uba1 [6]; up to 500 μM) was “inhibitory” and the IC50 ([7]; 15 min preincubation, 2 h with ATP, 2% DMSO, nonlinear regression, read-out: IC50 for inhibition of PCNA ubiquitination) was 0.228 µM. For the same compound, the “Activity in the PCNA ubiquitination assay (in words)” value ([7]; up to 500 μM) was “inhibitory”.
